According to PMC7316778 (Nature Communications, 2020):
Several values for one entry are separate records, joined by “and”; a condition that tells them apart may be missing. Equal entries are not always repeated. Where two headings read alike, the source gives them in different places.

How the values were obtained:
Assay in all cases: SelectScreen kinase assay
[1] = target: MARK1 (MARK) (Homo sapiens, UniProt Q9P0L2)
Description: (§1) Selectivity profiling assays were performed by the Invitrogen SelectScreen™ Services. […] The concentration of ATP was selected to be equal to the KM, unless indicated otherwise.

[2] = target: T1, PLK4 (Homo sapiens, UniProt O00444)
T1 sequence (O00444 1-970): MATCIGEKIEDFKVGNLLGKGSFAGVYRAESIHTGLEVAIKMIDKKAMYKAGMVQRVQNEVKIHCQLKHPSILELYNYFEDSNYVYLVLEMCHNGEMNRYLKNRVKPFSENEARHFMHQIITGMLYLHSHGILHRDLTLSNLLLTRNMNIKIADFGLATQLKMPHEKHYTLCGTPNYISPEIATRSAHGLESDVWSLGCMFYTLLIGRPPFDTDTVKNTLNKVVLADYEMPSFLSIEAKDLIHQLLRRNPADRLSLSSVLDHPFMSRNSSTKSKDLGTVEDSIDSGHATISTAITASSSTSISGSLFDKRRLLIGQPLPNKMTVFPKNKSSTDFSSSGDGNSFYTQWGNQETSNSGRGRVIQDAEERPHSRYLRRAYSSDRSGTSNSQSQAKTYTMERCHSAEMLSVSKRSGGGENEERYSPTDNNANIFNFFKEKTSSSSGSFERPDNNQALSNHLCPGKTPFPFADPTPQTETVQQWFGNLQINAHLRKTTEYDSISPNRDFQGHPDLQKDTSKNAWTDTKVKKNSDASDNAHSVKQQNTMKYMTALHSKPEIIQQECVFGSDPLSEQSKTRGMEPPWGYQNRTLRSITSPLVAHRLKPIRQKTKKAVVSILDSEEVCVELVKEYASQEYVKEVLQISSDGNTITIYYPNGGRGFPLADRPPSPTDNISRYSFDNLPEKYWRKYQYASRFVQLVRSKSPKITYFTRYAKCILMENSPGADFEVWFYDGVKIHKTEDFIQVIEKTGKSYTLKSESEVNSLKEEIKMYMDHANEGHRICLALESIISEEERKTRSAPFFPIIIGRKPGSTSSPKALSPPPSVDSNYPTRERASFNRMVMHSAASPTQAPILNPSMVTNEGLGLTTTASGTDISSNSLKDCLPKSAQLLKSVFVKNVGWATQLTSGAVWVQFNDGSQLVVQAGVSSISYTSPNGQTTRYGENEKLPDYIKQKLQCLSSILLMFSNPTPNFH
Description: as §1

[3] = target: KIT (Homo sapiens, UniProt P10721)
Description: as §1

[4] = target: TNK2 (ACK) (Homo sapiens, UniProt Q07912)
[5] = tested on: TNK2 (ACK); details: IC50 on that kinase divided by IC50 on FES^S700C
[6] = target: T2, LATS2 (Homo sapiens, UniProt Q9NRM7); details: for Inhibition at 1 µM (%): LATS2, LanthaScreen Binding
T2 sequence (Q9NRM7 1-1088): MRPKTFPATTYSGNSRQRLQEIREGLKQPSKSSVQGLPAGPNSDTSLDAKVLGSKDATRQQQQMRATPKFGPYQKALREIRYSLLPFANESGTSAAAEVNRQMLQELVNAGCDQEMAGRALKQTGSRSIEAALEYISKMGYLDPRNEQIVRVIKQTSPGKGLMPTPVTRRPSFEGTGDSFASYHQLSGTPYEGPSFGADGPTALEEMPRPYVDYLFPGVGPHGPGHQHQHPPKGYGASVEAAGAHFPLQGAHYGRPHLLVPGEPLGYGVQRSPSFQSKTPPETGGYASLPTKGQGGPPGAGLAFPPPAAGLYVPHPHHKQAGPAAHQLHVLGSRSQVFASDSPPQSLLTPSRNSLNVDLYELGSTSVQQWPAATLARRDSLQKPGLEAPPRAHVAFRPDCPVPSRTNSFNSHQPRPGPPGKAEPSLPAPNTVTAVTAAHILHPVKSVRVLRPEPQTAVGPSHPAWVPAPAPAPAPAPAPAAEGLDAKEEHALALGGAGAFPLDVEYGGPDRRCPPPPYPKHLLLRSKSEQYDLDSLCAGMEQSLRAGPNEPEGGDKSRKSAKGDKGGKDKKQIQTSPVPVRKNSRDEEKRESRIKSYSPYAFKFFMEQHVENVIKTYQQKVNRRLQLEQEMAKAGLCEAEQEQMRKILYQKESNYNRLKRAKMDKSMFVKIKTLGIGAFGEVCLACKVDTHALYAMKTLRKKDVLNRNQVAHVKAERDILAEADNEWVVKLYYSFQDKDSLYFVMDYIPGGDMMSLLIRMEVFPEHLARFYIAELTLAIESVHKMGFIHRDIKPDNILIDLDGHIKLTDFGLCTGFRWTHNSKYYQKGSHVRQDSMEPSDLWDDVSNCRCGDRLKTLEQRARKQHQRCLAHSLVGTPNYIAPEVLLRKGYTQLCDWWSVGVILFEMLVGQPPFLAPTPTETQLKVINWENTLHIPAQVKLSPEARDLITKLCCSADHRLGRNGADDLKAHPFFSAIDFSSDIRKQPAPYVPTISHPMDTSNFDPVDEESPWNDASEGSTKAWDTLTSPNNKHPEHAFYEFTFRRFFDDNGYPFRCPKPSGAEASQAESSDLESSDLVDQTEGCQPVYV
Description: as §1

[7] = 1 h, 1 μM WEL028, 1 h preincubation

Chain of MARK1 (MARK) (Q9P0L2 whole entry): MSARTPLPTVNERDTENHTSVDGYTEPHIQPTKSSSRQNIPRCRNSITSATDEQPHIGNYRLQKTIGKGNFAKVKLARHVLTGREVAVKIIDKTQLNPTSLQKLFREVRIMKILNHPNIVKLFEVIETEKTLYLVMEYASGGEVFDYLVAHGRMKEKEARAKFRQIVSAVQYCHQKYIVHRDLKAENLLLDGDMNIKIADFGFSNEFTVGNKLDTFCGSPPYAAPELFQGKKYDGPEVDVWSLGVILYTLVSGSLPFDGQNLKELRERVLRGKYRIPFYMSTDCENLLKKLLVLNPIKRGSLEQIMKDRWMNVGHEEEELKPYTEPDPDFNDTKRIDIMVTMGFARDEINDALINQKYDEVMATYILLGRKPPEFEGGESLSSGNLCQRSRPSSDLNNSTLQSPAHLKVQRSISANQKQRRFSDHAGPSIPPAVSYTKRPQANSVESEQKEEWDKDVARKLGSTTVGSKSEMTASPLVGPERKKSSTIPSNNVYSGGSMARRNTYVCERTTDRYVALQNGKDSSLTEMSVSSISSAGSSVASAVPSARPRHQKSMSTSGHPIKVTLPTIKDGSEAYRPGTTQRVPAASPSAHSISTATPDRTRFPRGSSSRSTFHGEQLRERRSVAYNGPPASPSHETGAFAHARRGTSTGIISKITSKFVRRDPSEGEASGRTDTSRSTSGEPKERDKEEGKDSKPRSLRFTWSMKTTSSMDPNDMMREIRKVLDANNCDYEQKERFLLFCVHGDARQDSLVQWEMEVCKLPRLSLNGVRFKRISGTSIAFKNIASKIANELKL
Chain of KIT (P10721 26-976): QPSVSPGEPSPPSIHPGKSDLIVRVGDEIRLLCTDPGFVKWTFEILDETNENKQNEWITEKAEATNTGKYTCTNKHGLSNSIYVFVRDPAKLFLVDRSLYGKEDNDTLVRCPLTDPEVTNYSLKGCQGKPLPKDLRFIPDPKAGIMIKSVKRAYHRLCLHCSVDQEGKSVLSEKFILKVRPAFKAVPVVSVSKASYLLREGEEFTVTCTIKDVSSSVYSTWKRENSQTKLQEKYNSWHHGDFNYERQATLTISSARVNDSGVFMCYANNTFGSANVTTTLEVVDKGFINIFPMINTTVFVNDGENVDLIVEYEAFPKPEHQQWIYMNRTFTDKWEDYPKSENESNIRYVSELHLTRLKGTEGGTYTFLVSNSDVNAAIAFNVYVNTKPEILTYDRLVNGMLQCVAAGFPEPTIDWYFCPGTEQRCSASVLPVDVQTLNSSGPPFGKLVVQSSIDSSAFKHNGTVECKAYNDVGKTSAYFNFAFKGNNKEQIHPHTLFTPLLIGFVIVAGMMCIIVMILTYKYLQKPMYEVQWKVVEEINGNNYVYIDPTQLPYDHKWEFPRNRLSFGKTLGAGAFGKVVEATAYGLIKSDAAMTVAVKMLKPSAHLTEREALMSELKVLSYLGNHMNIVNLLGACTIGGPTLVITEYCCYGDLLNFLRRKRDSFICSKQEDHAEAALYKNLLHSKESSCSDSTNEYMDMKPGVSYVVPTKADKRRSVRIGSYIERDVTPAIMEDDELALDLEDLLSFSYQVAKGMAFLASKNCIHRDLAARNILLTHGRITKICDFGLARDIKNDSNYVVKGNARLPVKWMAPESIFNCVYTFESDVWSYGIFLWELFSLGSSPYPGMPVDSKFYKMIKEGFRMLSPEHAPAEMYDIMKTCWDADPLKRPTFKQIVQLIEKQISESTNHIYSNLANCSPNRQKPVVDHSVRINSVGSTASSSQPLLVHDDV
Chain of TNK2 (ACK) (Homo sapiens, UniProt Q07912) (Q07912 whole entry, species assumed): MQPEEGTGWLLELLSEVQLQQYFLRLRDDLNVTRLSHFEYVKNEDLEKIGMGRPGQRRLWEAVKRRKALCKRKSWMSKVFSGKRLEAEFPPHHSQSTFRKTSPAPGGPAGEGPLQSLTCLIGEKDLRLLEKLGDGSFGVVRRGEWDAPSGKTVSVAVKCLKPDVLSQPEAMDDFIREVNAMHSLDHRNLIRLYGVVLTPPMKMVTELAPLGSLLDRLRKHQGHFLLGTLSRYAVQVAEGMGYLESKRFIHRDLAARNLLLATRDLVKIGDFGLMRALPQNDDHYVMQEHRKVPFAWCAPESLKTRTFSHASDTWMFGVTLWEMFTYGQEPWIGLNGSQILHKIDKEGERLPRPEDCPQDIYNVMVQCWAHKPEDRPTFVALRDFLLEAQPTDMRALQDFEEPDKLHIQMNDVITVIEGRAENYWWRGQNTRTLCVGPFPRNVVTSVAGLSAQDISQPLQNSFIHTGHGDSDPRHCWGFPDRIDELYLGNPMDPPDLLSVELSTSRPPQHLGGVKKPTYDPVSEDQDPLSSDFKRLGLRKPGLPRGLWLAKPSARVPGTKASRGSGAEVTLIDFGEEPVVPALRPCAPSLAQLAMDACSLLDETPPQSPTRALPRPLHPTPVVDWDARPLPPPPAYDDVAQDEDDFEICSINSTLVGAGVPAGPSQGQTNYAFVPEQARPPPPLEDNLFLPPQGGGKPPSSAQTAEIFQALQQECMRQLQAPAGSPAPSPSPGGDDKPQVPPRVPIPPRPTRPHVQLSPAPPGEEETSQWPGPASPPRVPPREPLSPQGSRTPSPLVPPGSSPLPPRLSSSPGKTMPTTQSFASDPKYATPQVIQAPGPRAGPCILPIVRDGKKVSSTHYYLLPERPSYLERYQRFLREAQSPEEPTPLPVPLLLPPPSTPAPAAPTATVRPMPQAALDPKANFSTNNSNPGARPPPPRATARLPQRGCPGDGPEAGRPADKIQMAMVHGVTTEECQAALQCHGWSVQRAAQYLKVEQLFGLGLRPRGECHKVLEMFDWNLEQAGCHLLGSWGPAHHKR

Compound: C#CCOc1ccc(Nc2ncc(Cl)c(Nc3ccccc3NC(=O)C=C)n2)c(OC)c1 [Compound 6]
- inhibition at 1 µM [1, 7]: 1%
- Inhibition at 1 µM (%) ([1]; MARK1 (MARK), 1 µM, ZLYTE, ATP Km app, listed as WEL028, 1 µM): -1% and 4%
- IC50 [2]: 25.1 nM
- inhibition at 1 µM [2, 7]: 98%
- Apparent fold selectivity ([2]; IC50 on that kinase divided by IC50 on FES^S700C): 6 fold
- inhibition at 1 µM ([2]; read-out: Inhibition at 1 µM (%), PLK4, 1 µM, LanthaScreen Binding): 99%
- inhibition at 1 µM [3, 7]: 18%
- Inhibition at 1 µM (%) ([3]; KIT, 1 µM, ZLYTE, ATP Km app, listed as WEL028, 1 µM): 16%
- inhibition at 1 µM ([3]; read-out: Inhibition at 1 µM (%), KIT, 1 µM, ZLYTE, ATP Km app): 21%
- IC50 [4]: 316 nM
- Inhibition at 1 µM (%) ([4]; 1 µM, LanthaScreen Binding, listed as WEL028, 1 µM): 72%
- inhibition at 1 µM [4, 7]: 73%
- inhibition at 10 µM ([4]; 1 h, log[inhibitor] (M) -5.00, LanthaScreen Binding): 46%
- inhibition at 3.311 µM ([4]; 1 h, log[inhibitor] (M) -5.48, LanthaScreen Binding): 70%
- inhibition at 1.122 µM ([4]; 1 h, log[inhibitor] (M) -5.95, LanthaScreen Binding): 77%
- inhibition at 0.3715 µM ([4]; 1 h, log[inhibitor] (M) -6.43, LanthaScreen Binding): 48%
- inhibition at 0.123 µM ([4]; 1 h, log[inhibitor] (M) -6.91, LanthaScreen Binding): 25%
- inhibition at 0.04074 µM ([4]; 1 h, log[inhibitor] (M) -7.39, LanthaScreen Binding): 5%
- inhibition at 1 µM ([4]; read-out: Inhibition at 1 µM (%), 1 µM, LanthaScreen Binding): 74%
- Apparent fold selectivity [5]: 76 fold
- Inhibition (%) ([6]; 1 μM WEL028, 1 h preincubation): 2%
- Inhibition at 1 µM (%) [6]: 3%
- Inhibition at 1 µM (%) ([6]; listed as WEL028, 1 µM): 0%
